Test results from patent US20230266302A1, “SYNTHESIS AND USE OF N-BENZYL SULFONAMIDES” (THE UNIVERSITY OF TULSA, priority 2020, published 2023).

How the values were obtained:
Test in all cases: Cytotoxicity testing, CellTiter-Blue assay (FIG. 9)
Format in all cases: cell-based
Conditions in all cases: 100 μM, 24 hour compound incubation, result in words
H293 (kidney cancer) = test system: H293 (kidney cancer)
Experimental: (§1) The cytotoxicity tests were carried out in the following manner. Living cells are known to convert resazurin to the fluorescent compound resorufin. Test systems which rely upon this reaction are commercially available. One such test is known at the Cell Titer Blue Cell Viability test assay from Promega. Cell cultures for each of the identified cancer lines were obtained from ATCC and maintained in Dulbecco's Modified Eagle Medium (DMEM) supplemented with 10% fetal bovine serum (FBS) and pen/strep. As known to those skilled in the art, DMEM typically includes the components identified below.
(§2) The test method provides for incubating the cell cultures at 37° C. Additionally, the cell cultures are kept under an atmosphere containing 5% CO2. After allowing for proliferation of the cells, the cells were distributed across a plurality of test cells containing from 100 μL DMEM plus 10% FBS and allowed to attach to the surface of the cells. Typically, the time for attachment will require about 12 hours to about 18 hours. Following attachment, the cells were treated with either a solvent control or the N-benzyl sulfonamide compound of interest dissolved in a suitable solvent such as but not limited to DMSO. Typically, about 18 hours to about 36 hours are required to determine the effect of the N-benzyl sulfonamide compound of interest on cell viability. Following treatment of the cells with the N-benzyl sulfonamide or control, the toxicity of the compound to the cells will be determined by addition of 10 μl of CellTiter-Blue reagent, i.e. resazurin. Typically, the resazurin is added between about 18 hours to about 36 hours after treating the cells with the N-benzyl sulfonamides or the control. The cells are allowed to consume and convert the resazurin to resorufin for about one to four hours. Subsequently, the fluorescence of […] is measured by excitation at 560 nm and recording the emission at 590 nm within an instrument configured to measure fluorescence intensity. Two commercially available systems are the BioTek Cytation 5 plate reader and the Promega Glomax Multi+detection system. […] The method for determining IC50 values is well known in the art and will not be discussed further. As known to those skilled in the art, IC50 is a quantitative measure that indicates how much of a particular inhibitory substance (e.g. drug) is needed to inhibit, in vitro, a given biological process or biological component by 50%. Therefore, each N-benzyl sulfonamide will be tested over a range of concentrations. Typically, the concentration ranges will be: 6.25 μM, 12.5 μM, 25 μM, 50 μM, and 100 μM. The control in this method is normally dimethyl […] (DMSO) or other solvent suitable for dissolving the compounds to be tested. FIG. 8 depicts the % cell viability for the indicated compounds depicted in FIG. 7.
(§3) The Table of FIG. 9 provides the results of cytotoxicity testing a 100 μM concentration of compounds 2, 5-9, 11-12, 14, 16, 18-22 of FIG. 7 against the indicated cancer cell lines using CellTiter-Blue assay with 24 hour compound incubation time. FIG. 9 reflects the percent reduction in cell viability resulting from the treatment of the indicated cancer cell lines with the indicated compounds. As indicated by the boxed values in FIG. 9, compounds 2, 5, and 6 would be considered effective against H293. […] The Table of FIG. 10 provides a comparison of the IC50 values of select compounds from FIG. 7 to the IC50 values of two known anti-cancer sulfonamides, ABT-751 and Indisulam. As indicated by FIG. 10, the identified compounds performed remarkably better than the known anti-cancer agents. Thus, the identified compounds are expected to have greater anti-cancer potency.

NCI-H196 (lung cancer) = test system: NCI-H196 (lung cancer)
Experimental: as §1, §2, §3

[1] = test system: MCF10A (non-cancerous breast)
Experimental: as §1, §2, §3

HeLa (cervical cancer) = test system: HeLa (cervical cancer)
Experimental: as §1, §2, §3

Compound	percent reduction in cell viability, H293 (H293 (kidney cancer))	percent reduction in cell viability, NCI-H196 (NCI-H196 (lung cancer))	percent reduction in cell viability, MCF10A [1]	percent reduction in cell viability, HeLa (HeLa (cervical cancer))
Cc1cccc2c(CNS(=O)(=O)c3ccccc3)c[nH]c12 [Compound 6, N-[(7-methyl-1H-indol-3-yl)methyl]benzenesulfonamide]	effective	–	–	–
O=S(=O)(NCc1c[nH]c2ccccc12)c1ccc(Cl)cc1 [Compound 2, N-[(1H-indol-3-yl)methyl]-4-chlorobenzenesulfonamide]	effective	–	–	–
Cc1ccc(S(=O)(=O)NCc2c[nH]c3cccc(Br)c23)cc1 [Compound 5, N-[(4-bromo-1H-indol-3-yl)methyl]-4-methylbenzenesulfonamide]	effective	displayed effectiveness	displayed effectiveness	displayed effectiveness
